{"source": "ChEMBL document CHEMBL1629566", "about": "“Development and qualification of a pharmacodynamic model for the pronounced inoculum effect of ceftazidime against Pseudomonas aeruginosa” (2009)", "format_in_all_cases": "functional", "key": {"Pseudomonas aeruginosa [1]": {"system": "Pseudomonas aeruginosa", "experiment": "Antimicrobial activity against Pseudomonas aeruginosa PAO1"}, "Pseudomonas aeruginosa [2]": {"system": "Pseudomonas aeruginosa", "experiment": "Antimicrobial activity against Pseudomonas aeruginosa PAO1 infected in in vitro pharmacodynamic model assessed as bacterial killing at 4 mg/L after 8 hrs using 10^6 CFU/ml inoculum by time kill study"}, "Pseudomonas aeruginosa [3]": {"system": "Pseudomonas aeruginosa", "experiment": "Antimicrobial activity against Pseudomonas aeruginosa PAO1 infected in in vitro pharmacodynamic model assessed as bacterial killing at 4 mg/L after 24 hrs using 10^6 CFU/ml inoculum by time kill study"}, "Pseudomonas aeruginosa [4]": {"system": "Pseudomonas aeruginosa", "experiment": "Antimicrobial activity against Pseudomonas aeruginosa PAO1 infected in in vitro pharmacodynamic model assessed as bacterial killing up to 64 mg/L after 48 hrs using 10^7 CFU/ml inoculum by time kill study"}, "Pseudomonas aeruginosa [5]": {"system": "Pseudomonas aeruginosa", "experiment": "Antimicrobial activity against Pseudomonas aeruginosa PAO1 infected in in vitro pharmacodynamic model assessed as bacterial killing at 0 to 128 mg/L using 10^8 CFU/ml inoculum by time kill study"}}, "data": [{"smiles": "CC(C)(O/N=C(\\C(=O)N[C@@H]1C(=O)N2C(C(=O)[O-])=C(C[n+]3ccccc3)CS[C@H]12)c1csc(N)n1)C(=O)O", "note": "[CEFTAZIDIME]", "values": [{"measurement": "MIC", "setting": "Pseudomonas aeruginosa [1]", "result": 2, "unit": "µg/mL"}, {"measurement": "log10cfu", "setting": "Pseudomonas aeruginosa [2]", "result": 3}, {"measurement": "log10cfu", "setting": "Pseudomonas aeruginosa [3]", "result": 3}, {"measurement": "log10cfu", "setting": "Pseudomonas aeruginosa [4]", "result": 1.6}, {"measurement": "log10cfu", "setting": "Pseudomonas aeruginosa [5]", "result": "<0.3"}]}]}
